How the values were obtained:
Format in all cases: cell-based
[1] = tested on: human adipose-derived stem cells; assay: Cell activity / proliferation by CCK-8 kit (Example 6); settings: for cell activity rates / proliferation of human adipose-derived stem cells compared to a control: FIG. 6; for concentration at which the substance showed the highest cell activity: tested at 0.2 ppm, 2 ppm and 20 ppm
Experimental: Human adipose-derived stem cells were purchased from Lonza, Inc. (Walkersville, Md., USA) and incubated in a CO2 incubator at 37° C. under 5% CO2 conditions. After the human adipose-derived stem cells were treated with 0.2 ppm, 2 ppm, and 20 ppm, respectively, cell activities thereof were identified using a CCK-8 kit (Dojindo).

[2] = tested on: human adipose-derived stem cells; assay: Oil Red O staining of differentiated adipose cells, observed by microscope (Example 2); settings: treated 14 days; compared with negative control treated only with differentiation medium; FIG. 1
Experimental: (§1) Human adipose-derived stem cells were purchased from Lonza, Inc. (Walkersvile, Md., USA) and cultured according to guidelines of Lonza, Inc. Differentiation into adipose cells was evaluated using a differentiation medium recommended by Lonza, Inc. As a positive control, the cells were treated with 1 μM rosiglitazone together with the differentiation medium. In order to induce differentiation of human adipose-derived stem cells into adipose cells, a cell culture solution was removed at 3 to 5 days after cell culturing was initiated, and the cells were treated with formononetin, acetyl mandelic acid, Magnoliae cortex extract, and the positive control for 14 days.
(§2) At 14 days after differentiation was initiated, the cell culture solution was removed, and the cells were washed with a phosphate buffer (DPBS) and immobilized using 10% formalin. The immobilized cells were observed using a microscope after staining fats and lipids contained in the adipose cells with Oil Red 0.

[3] = tested on: human adipose-derived stem cells; assay: Quantified differentiation: eluted Oil Red O, absorbance at 490 nm (Example 3); settings: Oil Red O eluted with isopropanol, absorbance 490 nm; compared with negative control (differentiation medium only); FIG. 2
Experimental: as §1, §2
Cultured human adipose-derived stem cells were treated with 12 types of the compounds including formononetin and a Magnoliae cortex extract and an Aloe vera extract in the same manner as in Example 2. Stained Oil Red 0 was eluted using a 100% isopropanol solution, and absorbance thereof was measured at a wavelength of 490 nm and quantified. […] It was confirmed that the substances according to the present invention promoted differentiation of human adipose-derived stem cells into adipose cells and effectively promoted differentiation into adipose cells compared to non-differentiation substances such as kaempferol. Thus, the compositions including the substances according to the present invention may be used for anti-aging purposes to enhance skin elasticity and reduce skin wrinkles by promoting differentiation of human adipose-derived stem cells and increasing the number of subcutaneous fat cells.

O=C(O)CCCC[C@@H]1CCSS1 (racemic) [thioctic acid]
cell activity rates / proliferation of human adipose-derived stem cells compared to a control [1]: significantly increased | concentration at which the substance showed the highest cell activity [1]: 20 ppm

CC(=O)OC(C(=O)O)c1ccccc1 (stereo not shown) [acetyl mandelic acid, O-acetyl mandelic acid]
effects on differentiation of human adipose-derived stem cells into adipose cells (Oil Red O staining) [2]: superior to those of the negative control | relative differentiation rate of human adipose-derived stem cells into adipose cells [3]: effectively promote differentiation

O=C(O)/C=C/c1ccc(O)c(O)c1 [caffeic acid]
cell activity rates / proliferation of human adipose-derived stem cells compared to a control [1]: significantly increased | concentration at which the substance showed the highest cell activity [1]: 20 ppm | relative differentiation rate of human adipose-derived stem cells into adipose cells [3]: effectively promote differentiation

CC(C)c1cc2c(c(O)c1O)[C@@]1(C(=O)O)CCCC(C)(C)[C@@H]1CC2 [carnosic acid]
cell activity rates / proliferation of human adipose-derived stem cells compared to a control [1]: significantly increased | concentration at which the substance showed the highest cell activity [1]: 2 ppm | relative differentiation rate of human adipose-derived stem cells into adipose cells [3]: effectively promote differentiation

Cc1cc(O)c2c(c1)C(=O)c1cc(O)cc(O)c1C2=O [emodin]
relative differentiation rate of human adipose-derived stem cells into adipose cells [3]: effectively promote differentiation

COc1ccc(-c2coc3cc(O)ccc3c2=O)cc1 [formononetin]
effects on differentiation of human adipose-derived stem cells into adipose cells (Oil Red O staining) [2]: superior to those of the negative control | relative differentiation rate of human adipose-derived stem cells into adipose cells [3]: effectively promote differentiation

O=C(O)c1cc(O)c(O)c(O)c1 [gallic acid]
cell activity rates / proliferation of human adipose-derived stem cells compared to a control [1]: significantly increased | concentration at which the substance showed the highest cell activity [1]: 20 ppm

CC1(C)[C@@H](O)CC[C@]2(C)[C@H]3C(=O)C=C4[C@@H]5C[C@@](C)(C(=O)O)CC[C@]5(C)CC[C@@]4(C)[C@]3(C)CC[C@@H]12 [glycyrrhetinic acid]
cell activity rates / proliferation of human adipose-derived stem cells compared to a control [1]: significantly increased | concentration at which the substance showed the highest cell activity [1]: 20 ppm

O=C(O)/C=C/c1cccc(O)c1 [hydroxycinnamic acid, m-coumaric acid]
relative differentiation rate of human adipose-derived stem cells into adipose cells [3]: effectively promote differentiation

O=c1c(O)c(-c2ccc(O)cc2)oc2cc(O)cc(O)c12 [kaempferol, reference compound]
relative differentiation rate of human adipose-derived stem cells into adipose cells [3]: non-differentiation

Cc1cc2nc3c(=O)[nH]c(=O)nc-3n(C[C@H](O)[C@H](O)[C@H](O)CO)c2cc1C [lactoflavin, riboflavin]
cell activity rates / proliferation of human adipose-derived stem cells compared to a control [1]: significantly increased | concentration at which the substance showed the highest cell activity [1]: 20 ppm

CC(C)=CCC[C@@H](C)[C@H]1CC[C@@]2(C)C3=C(CC[C@]12C)[C@@]1(C)CC[C@H](O)C(C)(C)[C@@H]1CC3 [lanosterol]
cell activity rates / proliferation of human adipose-derived stem cells compared to a control [1]: significantly increased | concentration at which the substance showed the highest cell activity [1]: 2 ppm

CC1=CC(=O)c2ccccc2C1=O [menadione]
cell activity rates / proliferation of human adipose-derived stem cells compared to a control [1]: significantly increased | concentration at which the substance showed the highest cell activity [1]: 0.2 ppm

CCCCCCCCCCCCCCCC(N)=O [palmitamide]
relative differentiation rate of human adipose-derived stem cells into adipose cells [3]: effectively promote differentiation

CC(=O)CCc1ccc(O)cc1 [raspberry ketone]
cell activity rates / proliferation of human adipose-derived stem cells compared to a control [1]: significantly increased | concentration at which the substance showed the highest cell activity [1]: 20 ppm

Cc1cc(S(=O)(=O)[O-])c2c(C)ccc(C(C)C)cc1-2.[Na+] [sodium guaiazulene sulfonate]
relative differentiation rate of human adipose-derived stem cells into adipose cells [3]: effectively promote differentiation

Cc1cc2nc3c(=O)[nH]c(=O)nc-3n(C[C@H](O)[C@H](O)[C@H](O)COP(=O)([O-])O)c2cc1C.[Na+] [sodium riboflavin phosphate]
cell activity rates / proliferation of human adipose-derived stem cells compared to a control [1]: significantly increased | concentration at which the substance showed the highest cell activity [1]: 20 ppm

O=c1cccccc1O [tropolone]
cell activity rates / proliferation of human adipose-derived stem cells compared to a control [1]: significantly increased | concentration at which the substance showed the highest cell activity [1]: 2 ppm

COC1=C(OC)C(=O)C(C/C=C(\C)CC/C=C(\C)CC/C=C(\C)CC/C=C(\C)CC/C=C(\C)CC/C=C(\C)CC/C=C(\C)CC/C=C(\C)CC/C=C(\C)CCC=C(C)C)=C(C)C1=O [ubiquinone, ubiquinone 10]
relative differentiation rate of human adipose-derived stem cells into adipose cells [3]: effectively promote differentiation

CC1=C[C@H](O)CC(C)(C)[C@H]1/C=C/C(C)=C/C=C/C(C)=C/C=C/C=C(C)/C=C/C=C(C)/C=C/C1=C(C)C[C@@H](O)CC1(C)C [xanthophyll, lutein]
cell activity rates / proliferation of human adipose-derived stem cells compared to a control [1]: significantly increased | concentration at which the substance showed the highest cell activity [1]: 20 ppm | relative differentiation rate of human adipose-derived stem cells into adipose cells [3]: effectively promote differentiation

laccaic acid
relative differentiation rate of human adipose-derived stem cells into adipose cells [3]: effectively promote differentiation

terpineol
cell activity rates / proliferation of human adipose-derived stem cells compared to a control [1]: significantly increased | concentration at which the substance showed the highest cell activity [1]: 20 ppm
